Test results taken from paper PMC7909954 (eLife, 2021).

Legend:
[1] = target: T1, α2C-adrenoreceptors (Homo sapiens, UniProt P18825); assay: Radioligand binding counter-screen (NIMH PDSP)
T1 construct: NIMH Psychoactive Drug Screening Program
T1 sequence (P18825 1-462): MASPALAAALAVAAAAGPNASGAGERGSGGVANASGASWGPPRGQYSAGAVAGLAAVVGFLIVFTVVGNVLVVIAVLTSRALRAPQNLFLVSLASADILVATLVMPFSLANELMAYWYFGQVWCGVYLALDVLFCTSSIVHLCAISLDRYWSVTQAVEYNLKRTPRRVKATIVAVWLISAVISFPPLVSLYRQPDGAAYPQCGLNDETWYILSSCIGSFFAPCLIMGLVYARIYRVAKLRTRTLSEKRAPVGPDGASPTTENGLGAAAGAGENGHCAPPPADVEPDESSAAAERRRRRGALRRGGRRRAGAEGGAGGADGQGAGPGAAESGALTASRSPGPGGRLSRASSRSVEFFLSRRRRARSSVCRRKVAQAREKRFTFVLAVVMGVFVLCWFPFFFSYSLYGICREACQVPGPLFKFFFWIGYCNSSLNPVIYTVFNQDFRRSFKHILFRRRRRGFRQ

[2] = target: KOR (Homo sapiens, UniProt P41145)
[3] = target: mDOR (Mus musculus, UniProt P32300); conditions: binding assays
[4] = target: mMOR (Mus musculus, UniProt P42866); assay: cell-based
[5] = target: MOR (Homo sapiens, UniProt P35372); assay: Radioligand binding counter-screen (NIMH PDSP); set-up: NIMH Psychoactive Drug Screening Program
[6] = transduction coefficient log(T/KA)

Sequence of KOR (P41145 whole entry): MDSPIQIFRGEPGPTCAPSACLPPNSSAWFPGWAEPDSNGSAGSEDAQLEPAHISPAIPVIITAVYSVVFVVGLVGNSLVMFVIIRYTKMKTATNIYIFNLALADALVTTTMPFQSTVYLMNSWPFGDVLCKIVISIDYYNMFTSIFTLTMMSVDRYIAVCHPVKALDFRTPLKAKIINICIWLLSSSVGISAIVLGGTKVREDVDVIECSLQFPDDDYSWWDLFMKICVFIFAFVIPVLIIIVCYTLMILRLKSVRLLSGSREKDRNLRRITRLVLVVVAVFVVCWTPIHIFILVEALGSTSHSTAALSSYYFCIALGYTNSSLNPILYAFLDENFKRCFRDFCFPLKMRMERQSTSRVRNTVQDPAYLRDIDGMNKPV
Sequence of mMOR (P42866 whole entry): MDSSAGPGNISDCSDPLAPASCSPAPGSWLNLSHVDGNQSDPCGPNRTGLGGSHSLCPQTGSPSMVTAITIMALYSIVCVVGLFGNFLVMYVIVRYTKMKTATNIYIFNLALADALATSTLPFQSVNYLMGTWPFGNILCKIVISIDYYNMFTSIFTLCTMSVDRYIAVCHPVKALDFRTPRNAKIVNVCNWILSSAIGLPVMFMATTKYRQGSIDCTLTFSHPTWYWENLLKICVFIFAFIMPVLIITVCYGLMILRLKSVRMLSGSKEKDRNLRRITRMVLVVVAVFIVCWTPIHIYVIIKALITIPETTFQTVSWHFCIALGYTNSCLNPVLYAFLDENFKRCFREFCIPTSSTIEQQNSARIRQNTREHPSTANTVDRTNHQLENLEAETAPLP
Sequence of mDOR (P32300 whole entry): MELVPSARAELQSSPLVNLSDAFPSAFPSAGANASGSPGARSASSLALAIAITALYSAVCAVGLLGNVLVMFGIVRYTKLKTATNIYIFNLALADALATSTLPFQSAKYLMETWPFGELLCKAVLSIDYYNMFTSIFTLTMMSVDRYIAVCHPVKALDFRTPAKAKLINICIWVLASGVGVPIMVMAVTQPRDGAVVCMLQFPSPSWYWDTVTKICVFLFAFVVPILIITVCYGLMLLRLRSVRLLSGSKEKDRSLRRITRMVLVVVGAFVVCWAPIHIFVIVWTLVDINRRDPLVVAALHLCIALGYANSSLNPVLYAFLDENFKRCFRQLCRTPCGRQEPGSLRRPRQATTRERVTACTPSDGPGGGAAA
Sequence of MOR (P35372 whole entry): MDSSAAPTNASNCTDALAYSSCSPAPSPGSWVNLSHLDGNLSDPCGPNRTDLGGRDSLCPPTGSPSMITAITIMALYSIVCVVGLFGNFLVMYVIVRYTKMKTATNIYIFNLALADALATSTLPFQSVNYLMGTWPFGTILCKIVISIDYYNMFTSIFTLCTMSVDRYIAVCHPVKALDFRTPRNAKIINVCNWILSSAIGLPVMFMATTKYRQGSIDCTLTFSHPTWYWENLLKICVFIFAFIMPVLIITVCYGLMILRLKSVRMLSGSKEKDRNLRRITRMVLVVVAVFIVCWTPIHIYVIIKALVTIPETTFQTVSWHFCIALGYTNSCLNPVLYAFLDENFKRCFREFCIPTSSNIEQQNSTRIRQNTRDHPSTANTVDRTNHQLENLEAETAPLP

NCc1cccc(C(=O)N[C@@H]2CCC3C4Cc5ccc(O)c6c5[C@@]3(CCN4CC3CC3)C2O6)c1 (stereo partly drawn) [MP1207, 3-(Aminomethyl)-N-((7R,12bS)−3-(cyclopropylmethyl)−9-hydroxy-2,3,4,4a,5,6,7,7a-octahydro-1H-4,12-methanobenzofuro[3,2-e]isoquinolin-7-yl)benzamide]
Ki [1]: 2980 nM | ΔΔlog RA (cAMP-Tango) hKOR [2]: 0.903±0.026 | Bias factor (cAMP-Tango) hKOR ([2]; >1 G protein bias, <1 arrestin bias, vs U50,488h): 8 | Log RA cAMP hKOR [2, 6]: 9.902±0.004 | LogRA Tango hKOR [2, 6]: 7.97±0.024 | ΔlogRA Tango hKOR ([2]; vs U50,488h): -0.176±0.025 | ΔlogRA cAMP hKOR ([2]; vs U50,488h): 0.73±0.006 | selectivity for MOR and KOR over DOR [3]: more than 40 fold | EC50 ([4]; EC50 G protein activation (BRET) mMOR): 3.61 nM | Emax ([4]; HEK-293T, read-out: Emax% G protein activation (BRET) mMOR): 42 ± 2.6% | Ki [5]: 0.39 nM
